# Source: patent US20260274829A1, “NEW E3 UBIQUITIN LIGASE LIGAND, PROTEIN DEGRADATION AGENT AND USE THEREOF” (GLUETACS THERAPEUTICS (SHANGHAI) CO., LTD., priority 2023, published 2026)
# How the values were obtained:
# Assay type in all cases: cell-based
# GSPT1 = biological target: T1, GSPT1 (Homo sapiens, UniProt P15170+Q96SW2); assay: Western blot degradation of GSPT1 in hPBMC
# T1 construct: endogenous in cells; host or cells: hPBMC
# Procedure, shortened: (§1)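 Compound-treated hPBMC lysates were denatured in SDS loading buffer at 95° C for 5 minutes, run on SDS-PAGE and blotted to nitrocellulose. DC50 is the concentration giving band grayscale half that of DMSO controls, from a fitted concentration-response curve; remaining protein is band intensity normalized to an internal control protein.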
# IKZF1 = biological target: T2, IKZF1 (Homo sapiens, UniProt Q13422+Q96SW2); assay: Western blot degradation of IKZF1 in hPBMC
# T2 construct: endogenous in cells; host or cells: hPBMC
# Procedure, shortened: as §1
# CK1a = biological target: T3, CK1a (Homo sapiens, UniProt P48729+Q96SW2); assay: Western blot degradation of CK1a in hPBMC
# T3 construct: endogenous in cells; host or cells: hPBMC
# Procedure, shortened: as §1
# IKZF3 = biological target: T4, IKZF3 (Homo sapiens, UniProt Q96SW2+Q9UKT9); assay: Western blot degradation of IKZF3 in hPBMC
# T4 construct: endogenous in cells; host or cells: hPBMC
# Procedure, shortened: as §1
# WEE1 = biological target: T5, WEE1 (Homo sapiens, UniProt P30291+Q96SW2); assay: Western blot degradation of WEE1 in hPBMC
# T5 construct: endogenous in cells; host or cells: hPBMC
# Procedure, shortened: as §1
# IKZF2 = biological target: T6, IKZF2 (Homo sapiens, UniProt Q96SW2+Q9UKS7); assay: Western blot degradation of IKZF2 in hPBMC
# T6 construct: endogenous in cells; host or cells: hPBMC
# Procedure, shortened: as §1
# T1 sequence (P15170 whole entry): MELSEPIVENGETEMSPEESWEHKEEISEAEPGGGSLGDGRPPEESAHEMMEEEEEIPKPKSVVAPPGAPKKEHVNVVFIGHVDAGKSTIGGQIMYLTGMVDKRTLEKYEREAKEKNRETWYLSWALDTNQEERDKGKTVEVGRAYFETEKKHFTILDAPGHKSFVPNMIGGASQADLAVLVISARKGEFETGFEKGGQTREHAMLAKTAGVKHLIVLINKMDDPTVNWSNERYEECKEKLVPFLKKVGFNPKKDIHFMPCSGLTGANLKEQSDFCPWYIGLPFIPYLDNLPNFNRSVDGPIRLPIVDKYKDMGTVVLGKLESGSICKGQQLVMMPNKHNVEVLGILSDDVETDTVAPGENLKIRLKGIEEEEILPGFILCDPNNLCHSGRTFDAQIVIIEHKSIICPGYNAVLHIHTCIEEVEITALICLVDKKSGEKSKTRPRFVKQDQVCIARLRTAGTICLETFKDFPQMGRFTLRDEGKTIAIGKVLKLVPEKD
# T1 sequence (Q96SW2 whole entry): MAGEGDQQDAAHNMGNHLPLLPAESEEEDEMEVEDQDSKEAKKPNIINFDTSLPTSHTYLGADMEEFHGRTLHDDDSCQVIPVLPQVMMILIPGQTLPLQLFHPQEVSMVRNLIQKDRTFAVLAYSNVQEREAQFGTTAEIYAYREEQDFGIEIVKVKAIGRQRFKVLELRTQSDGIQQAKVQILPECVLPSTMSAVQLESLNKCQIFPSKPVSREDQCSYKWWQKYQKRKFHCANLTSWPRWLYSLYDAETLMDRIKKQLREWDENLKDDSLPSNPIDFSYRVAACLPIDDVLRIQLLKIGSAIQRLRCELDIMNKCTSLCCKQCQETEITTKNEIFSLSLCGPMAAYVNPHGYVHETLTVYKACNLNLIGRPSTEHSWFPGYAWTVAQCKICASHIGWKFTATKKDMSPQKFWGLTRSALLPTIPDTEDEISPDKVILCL
# T1 sequence (Q16531 whole entry partner): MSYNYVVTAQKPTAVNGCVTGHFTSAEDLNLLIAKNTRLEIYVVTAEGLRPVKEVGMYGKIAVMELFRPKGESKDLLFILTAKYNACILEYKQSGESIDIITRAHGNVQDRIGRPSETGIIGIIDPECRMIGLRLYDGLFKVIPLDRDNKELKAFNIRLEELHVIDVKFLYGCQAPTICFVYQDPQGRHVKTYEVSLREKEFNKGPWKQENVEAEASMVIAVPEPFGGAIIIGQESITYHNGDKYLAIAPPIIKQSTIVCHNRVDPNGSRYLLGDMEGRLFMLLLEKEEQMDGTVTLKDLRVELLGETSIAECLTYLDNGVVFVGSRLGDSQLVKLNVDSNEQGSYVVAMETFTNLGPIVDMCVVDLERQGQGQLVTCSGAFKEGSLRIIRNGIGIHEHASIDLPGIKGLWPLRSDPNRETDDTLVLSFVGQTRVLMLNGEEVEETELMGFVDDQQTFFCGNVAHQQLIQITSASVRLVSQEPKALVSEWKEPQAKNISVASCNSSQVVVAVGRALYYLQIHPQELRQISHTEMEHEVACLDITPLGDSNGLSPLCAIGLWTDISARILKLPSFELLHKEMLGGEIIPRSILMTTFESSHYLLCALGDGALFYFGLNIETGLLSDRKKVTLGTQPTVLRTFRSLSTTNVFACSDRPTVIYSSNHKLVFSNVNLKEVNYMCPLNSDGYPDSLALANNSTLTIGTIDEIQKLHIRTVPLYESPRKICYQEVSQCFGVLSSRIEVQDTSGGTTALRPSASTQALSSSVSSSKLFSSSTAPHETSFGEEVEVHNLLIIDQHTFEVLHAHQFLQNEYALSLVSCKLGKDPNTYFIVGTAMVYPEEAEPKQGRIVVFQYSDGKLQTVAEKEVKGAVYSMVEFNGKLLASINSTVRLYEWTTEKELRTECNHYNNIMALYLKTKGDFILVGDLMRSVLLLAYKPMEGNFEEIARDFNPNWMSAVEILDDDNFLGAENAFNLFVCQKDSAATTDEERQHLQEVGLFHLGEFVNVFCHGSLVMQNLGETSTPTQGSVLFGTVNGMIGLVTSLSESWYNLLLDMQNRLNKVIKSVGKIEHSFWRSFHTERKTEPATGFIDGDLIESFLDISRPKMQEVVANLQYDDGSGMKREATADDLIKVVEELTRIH
# T6 sequence (Q9UKS7 whole entry): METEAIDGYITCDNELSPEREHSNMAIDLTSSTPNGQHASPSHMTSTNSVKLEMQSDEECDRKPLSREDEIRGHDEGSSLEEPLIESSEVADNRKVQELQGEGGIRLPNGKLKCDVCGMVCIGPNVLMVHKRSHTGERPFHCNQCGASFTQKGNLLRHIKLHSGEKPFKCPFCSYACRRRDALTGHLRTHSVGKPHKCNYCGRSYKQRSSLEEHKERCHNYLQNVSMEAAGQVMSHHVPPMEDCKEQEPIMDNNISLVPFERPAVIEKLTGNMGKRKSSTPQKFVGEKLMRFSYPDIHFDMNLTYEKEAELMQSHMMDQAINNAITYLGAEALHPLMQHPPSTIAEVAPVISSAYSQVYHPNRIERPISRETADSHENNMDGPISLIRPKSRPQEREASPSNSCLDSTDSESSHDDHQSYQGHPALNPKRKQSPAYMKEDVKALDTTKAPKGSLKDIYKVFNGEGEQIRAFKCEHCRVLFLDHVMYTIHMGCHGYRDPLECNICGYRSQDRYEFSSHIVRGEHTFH
# T6 sequence (Q96SW2 whole entry): as the sequence (Q96SW2 whole entry) above
# T6 sequence (Q16531 whole entry partner): as the sequence (Q16531 whole entry partner) above
# T4 sequence (Q9UKT9 whole entry): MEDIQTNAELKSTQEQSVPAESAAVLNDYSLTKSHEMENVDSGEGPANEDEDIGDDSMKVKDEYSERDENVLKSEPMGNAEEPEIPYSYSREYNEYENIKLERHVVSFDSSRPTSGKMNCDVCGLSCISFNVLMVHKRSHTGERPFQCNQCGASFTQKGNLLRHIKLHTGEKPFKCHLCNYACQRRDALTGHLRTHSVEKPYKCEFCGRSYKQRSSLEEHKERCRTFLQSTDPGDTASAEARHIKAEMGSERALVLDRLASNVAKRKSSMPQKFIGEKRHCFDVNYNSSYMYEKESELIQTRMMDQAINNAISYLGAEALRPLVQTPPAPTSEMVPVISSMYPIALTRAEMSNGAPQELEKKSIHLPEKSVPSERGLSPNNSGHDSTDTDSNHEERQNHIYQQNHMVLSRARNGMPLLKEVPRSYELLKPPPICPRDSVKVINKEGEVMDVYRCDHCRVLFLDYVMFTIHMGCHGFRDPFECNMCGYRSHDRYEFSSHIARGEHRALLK
# T4 sequence (Q96SW2 whole entry): as the sequence (Q96SW2 whole entry) above
# T4 sequence (Q16531 whole entry partner): as the sequence (Q16531 whole entry partner) above
# T2 sequence (Q13422 whole entry): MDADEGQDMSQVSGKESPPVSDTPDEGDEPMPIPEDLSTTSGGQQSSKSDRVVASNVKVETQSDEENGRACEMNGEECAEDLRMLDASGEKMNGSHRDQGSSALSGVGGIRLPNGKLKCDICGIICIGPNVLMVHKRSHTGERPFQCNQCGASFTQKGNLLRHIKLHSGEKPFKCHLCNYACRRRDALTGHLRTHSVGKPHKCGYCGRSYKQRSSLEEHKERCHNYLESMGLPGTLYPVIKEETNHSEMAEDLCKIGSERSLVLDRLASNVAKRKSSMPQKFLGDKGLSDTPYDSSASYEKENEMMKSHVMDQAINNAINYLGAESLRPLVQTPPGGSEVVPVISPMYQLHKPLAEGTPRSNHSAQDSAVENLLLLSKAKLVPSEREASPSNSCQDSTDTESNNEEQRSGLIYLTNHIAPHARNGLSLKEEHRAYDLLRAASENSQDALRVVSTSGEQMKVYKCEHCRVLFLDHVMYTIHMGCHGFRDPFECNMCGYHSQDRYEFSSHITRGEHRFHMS
# T2 sequence (Q96SW2 whole entry): as the sequence (Q96SW2 whole entry) above
# T2 sequence (Q16531 whole entry partner): as the sequence (Q16531 whole entry partner) above
# T3 sequence (P48729 whole entry): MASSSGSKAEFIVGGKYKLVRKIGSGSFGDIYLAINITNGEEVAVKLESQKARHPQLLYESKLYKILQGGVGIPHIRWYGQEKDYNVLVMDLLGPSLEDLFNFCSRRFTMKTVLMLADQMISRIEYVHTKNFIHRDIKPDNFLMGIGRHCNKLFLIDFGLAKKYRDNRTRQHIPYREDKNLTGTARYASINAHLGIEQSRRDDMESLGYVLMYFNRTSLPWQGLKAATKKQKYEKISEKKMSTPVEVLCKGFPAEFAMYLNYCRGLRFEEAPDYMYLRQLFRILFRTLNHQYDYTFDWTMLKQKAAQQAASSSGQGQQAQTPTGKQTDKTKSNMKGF
# T3 sequence (Q96SW2 whole entry): as the sequence (Q96SW2 whole entry) above
# T3 sequence (Q16531 whole entry partner): as the sequence (Q16531 whole entry partner) above
Compound,Degradation of substrate protein GSPT1 (substrate protein remaining %) (GSPT1),Degradation of substrate protein IKZF1 (substrate protein remaining %) (IKZF1),Degradation of substrate protein CK1a (substrate protein remaining %) (CK1a),Degradation of substrate protein IKZF3 (substrate protein remaining %) (IKZF3),Degradation of substrate protein WEE1 (substrate protein remaining %) (WEE1),Degradation of substrate protein IKZF2 (substrate protein remaining %) (IKZF2)
"O=C1CCC(c2ncccc2CO)C(=O)N1 (stereo not drawn) [GT-07370, 3-(3-(hydroxymethyl)pyridin-2-yl)piperidine-2,6-dione]",A (A is defined as 0% ≤ substrate protein remaining % ≤ 80%),B (B is defined as substrate protein remaining % > 80%),A (A is defined as 0% ≤ substrate protein remaining % ≤ 80%),B (B is defined as substrate protein remaining % > 80%),B (B is defined as substrate protein remaining % > 80%),B (B is defined as substrate protein remaining % > 80%)
"CC(C)(C)[Si](C)(C)OCc1cncnc1NC1CCC(=O)NC1=O (stereo not drawn) [GT-07639, 3-((5-(((tert-butyldimethylsilyl)oxy)methyl)pyrimidin-4-yl)amino)piperidine-2,6-dione]",A (A is defined as 0% ≤ substrate protein remaining % ≤ 80%),A (A is defined as 0% ≤ substrate protein remaining % ≤ 80%),A (A is defined as 0% ≤ substrate protein remaining % ≤ 80%),A (A is defined as 0% ≤ substrate protein remaining % ≤ 80%),A (A is defined as 0% ≤ substrate protein remaining % ≤ 80%),A (A is defined as 0% ≤ substrate protein remaining % ≤ 80%)
"NCc1cncc(N2CCC(=O)NC2=O)n1 [GT-07801, 1-(6-(aminomethyl)pyrazin-2-yl)dihydropyrimidine-2,4(1H,3H)-dione]",B (B is defined as substrate protein remaining % > 80%),B (B is defined as substrate protein remaining % > 80%),A (A is defined as 0% ≤ substrate protein remaining % ≤ 80%),B (B is defined as substrate protein remaining % > 80%),B (B is defined as substrate protein remaining % > 80%),B (B is defined as substrate protein remaining % > 80%)
"O=C1CCC(Nc2ncc(CO)cn2)C(=O)N1 (stereo not drawn) [GT-07809, 3-((5-(hydroxymethyl)pyrimidin-2-yl)amino)piperidine-2,6-dione]",B (B is defined as substrate protein remaining % > 80%),A (A is defined as 0% ≤ substrate protein remaining % ≤ 80%),B (B is defined as substrate protein remaining % > 80%),A (A is defined as 0% ≤ substrate protein remaining % ≤ 80%),A (A is defined as 0% ≤ substrate protein remaining % ≤ 80%),A (A is defined as 0% ≤ substrate protein remaining % ≤ 80%)
"NCc1cc(N2CCC(=O)NC2=O)cnc1F [GT-07729, 1-(5-(aminomethyl)-6-fluoropyridin-3-yl)dihydropyrimidine-2,4(1H,3H)-dione]",A (A is defined as 0% ≤ substrate protein remaining % ≤ 80%),A (A is defined as 0% ≤ substrate protein remaining % ≤ 80%),B (B is defined as substrate protein remaining % > 80%),A (A is defined as 0% ≤ substrate protein remaining % ≤ 80%),A (A is defined as 0% ≤ substrate protein remaining % ≤ 80%),A (A is defined as 0% ≤ substrate protein remaining % ≤ 80%)
"O=Cc1cnc(NC2CCC(=O)NC2=O)nc1 (stereo not drawn) [GT-07367, 2-((2,6-dioxopiperidin-3-yl)amino)pyrimidine-5-carbaldehyde]",A (A is defined as 0% ≤ substrate protein remaining % ≤ 80%),B (B is defined as substrate protein remaining % > 80%),A (A is defined as 0% ≤ substrate protein remaining % ≤ 80%),B (B is defined as substrate protein remaining % > 80%),B (B is defined as substrate protein remaining % > 80%),B (B is defined as substrate protein remaining % > 80%)
"O=C1CCC(Nc2ccc(CO)nn2)C(=O)N1 (stereo not drawn) [GT-07803, 3-((6-(hydroxymethyl)pyridazin-3-yl)amino)piperidine-2,6-dione]",B (B is defined as substrate protein remaining % > 80%),A (A is defined as 0% ≤ substrate protein remaining % ≤ 80%),B (B is defined as substrate protein remaining % > 80%),A (A is defined as 0% ≤ substrate protein remaining % ≤ 80%),B (B is defined as substrate protein remaining % > 80%),A (A is defined as 0% ≤ substrate protein remaining % ≤ 80%)
"CC(C)(C)[Si](C)(C)OCc1ccncc1NC1CCC(=O)NC1=O (stereo not drawn) [GT-07638, 3-((4-(((tert-butyldimethylsilyl)oxy)methyl)pyridin-3-yl)amino)piperidine-2,6-dione]",A (A is defined as 0% ≤ substrate protein remaining % ≤ 80%),B (B is defined as substrate protein remaining % > 80%),B (B is defined as substrate protein remaining % > 80%),A (A is defined as 0% ≤ substrate protein remaining % ≤ 80%),A (A is defined as 0% ≤ substrate protein remaining % ≤ 80%),A (A is defined as 0% ≤ substrate protein remaining % ≤ 80%)
"CC(C)(C)[Si](C)(C)OCc1ccc(NC2CCC(=O)NC2=O)nn1 (stereo not drawn) [GT-07726, 3-((6-(((tert-butyldimethylsilyl)oxy)methyl)pyridazin-3-yl)amino)piperidine-2,6-dione]",B (B is defined as substrate protein remaining % > 80%),A (A is defined as 0% ≤ substrate protein remaining % ≤ 80%),B (B is defined as substrate protein remaining % > 80%),A (A is defined as 0% ≤ substrate protein remaining % ≤ 80%),A (A is defined as 0% ≤ substrate protein remaining % ≤ 80%),A (A is defined as 0% ≤ substrate protein remaining % ≤ 80%)
"O=C1CCN(c2cncc(CO)n2)C(=O)N1 [GT-07632, 1-(6-(hydroxymethyl)pyrazin-2-yl)dihydropyrimidine-2,4(1H,3H)-dione]",B (B is defined as substrate protein remaining % > 80%),A (A is defined as 0% ≤ substrate protein remaining % ≤ 80%),A (A is defined as 0% ≤ substrate protein remaining % ≤ 80%),A (A is defined as 0% ≤ substrate protein remaining % ≤ 80%),A (A is defined as 0% ≤ substrate protein remaining % ≤ 80%),A (A is defined as 0% ≤ substrate protein remaining % ≤ 80%)
"O=C1CCN(c2cc(CCl)ccn2)C(=O)N1 [GT-07078, 1-(4-(chloromethyl)pyridin-2-yl)dihydropyrimidine-2,4(1H,3H)-dione]",A (A is defined as 0% ≤ substrate protein remaining % ≤ 80%),B (B is defined as substrate protein remaining % > 80%),B (B is defined as substrate protein remaining % > 80%),B (B is defined as substrate protein remaining % > 80%),B (B is defined as substrate protein remaining % > 80%),B (B is defined as substrate protein remaining % > 80%)
"CC(C)(C)[Si](C)(C)OCc1cnc(NC2CCC(=O)NC2=O)nc1 (stereo not drawn) [GT-07808, 3-((5-(((tert-butyldimethylsilyl)oxy)methyl)pyrimidin-2-yl)amino)piperidine-2,6-dione]",B (B is defined as substrate protein remaining % > 80%),A (A is defined as 0% ≤ substrate protein remaining % ≤ 80%),B (B is defined as substrate protein remaining % > 80%),A (A is defined as 0% ≤ substrate protein remaining % ≤ 80%),A (A is defined as 0% ≤ substrate protein remaining % ≤ 80%),A (A is defined as 0% ≤ substrate protein remaining % ≤ 80%)
